# Test results from patent US8795977B2, “Method for screening a potential modulator compound of a taste receptor” (Conopco, Inc., priority 2009, dated 2014).
# Target: T1, T1R1/T1R3 umami receptor (Homo sapiens, UniProt Q7RTX0+Q7RTX1, C757R)
# T1 construct: expressed in transfected cells; host or cells: HEK293 cells stably expressing Gα15, transiently transfected
# T1 sequence (Q7RTX1 21-841): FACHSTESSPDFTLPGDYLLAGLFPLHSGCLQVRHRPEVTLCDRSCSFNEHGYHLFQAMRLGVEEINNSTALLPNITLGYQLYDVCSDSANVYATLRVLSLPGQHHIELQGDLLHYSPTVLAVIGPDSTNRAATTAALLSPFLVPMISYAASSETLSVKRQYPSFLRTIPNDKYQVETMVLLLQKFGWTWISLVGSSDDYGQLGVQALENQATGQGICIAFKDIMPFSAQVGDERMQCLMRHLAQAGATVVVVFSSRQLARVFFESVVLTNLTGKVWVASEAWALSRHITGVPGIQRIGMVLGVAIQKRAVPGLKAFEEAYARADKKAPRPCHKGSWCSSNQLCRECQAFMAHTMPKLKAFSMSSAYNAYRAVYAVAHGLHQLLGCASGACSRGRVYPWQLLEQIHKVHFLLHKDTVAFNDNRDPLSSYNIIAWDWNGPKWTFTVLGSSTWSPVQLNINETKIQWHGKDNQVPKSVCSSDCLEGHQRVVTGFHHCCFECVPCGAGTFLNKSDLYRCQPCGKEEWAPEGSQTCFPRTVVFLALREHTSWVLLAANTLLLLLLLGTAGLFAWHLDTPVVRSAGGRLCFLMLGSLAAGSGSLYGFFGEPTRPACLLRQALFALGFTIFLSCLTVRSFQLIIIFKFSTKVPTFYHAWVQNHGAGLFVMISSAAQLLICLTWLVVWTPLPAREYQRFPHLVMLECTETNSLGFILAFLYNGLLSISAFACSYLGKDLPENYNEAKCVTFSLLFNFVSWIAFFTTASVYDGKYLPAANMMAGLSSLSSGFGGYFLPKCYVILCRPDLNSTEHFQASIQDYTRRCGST
# T1 sequence (Q7RTX0 21-852 C757R): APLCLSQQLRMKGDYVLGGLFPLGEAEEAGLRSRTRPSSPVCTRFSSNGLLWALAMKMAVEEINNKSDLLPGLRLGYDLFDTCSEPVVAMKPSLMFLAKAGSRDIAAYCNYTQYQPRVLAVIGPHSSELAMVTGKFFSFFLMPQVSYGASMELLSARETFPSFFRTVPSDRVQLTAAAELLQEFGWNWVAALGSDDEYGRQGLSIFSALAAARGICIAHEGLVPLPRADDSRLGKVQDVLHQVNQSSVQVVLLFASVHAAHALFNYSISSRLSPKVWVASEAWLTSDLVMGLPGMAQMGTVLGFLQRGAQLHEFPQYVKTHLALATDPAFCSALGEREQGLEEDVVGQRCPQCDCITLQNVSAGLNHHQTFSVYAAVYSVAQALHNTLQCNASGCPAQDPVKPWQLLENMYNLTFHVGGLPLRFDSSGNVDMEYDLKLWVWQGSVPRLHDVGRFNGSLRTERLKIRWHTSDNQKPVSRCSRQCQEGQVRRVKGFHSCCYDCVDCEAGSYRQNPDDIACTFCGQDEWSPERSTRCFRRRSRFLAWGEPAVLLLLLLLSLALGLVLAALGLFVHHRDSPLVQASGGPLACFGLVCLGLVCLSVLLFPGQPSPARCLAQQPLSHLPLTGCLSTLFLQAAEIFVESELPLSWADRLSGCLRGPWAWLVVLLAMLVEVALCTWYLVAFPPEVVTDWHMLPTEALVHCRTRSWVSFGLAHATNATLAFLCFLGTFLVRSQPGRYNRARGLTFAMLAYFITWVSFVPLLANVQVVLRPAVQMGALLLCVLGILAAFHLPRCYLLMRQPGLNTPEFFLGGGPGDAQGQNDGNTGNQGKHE
# Assay: Calcium-based receptor assay (release of intracellular calcium, Fluo-4-AM)
# Format: cell-based
# Parameters: key to T1R1/T1R3 receptor-specific signal, Calcium assay: +: For the calcium assay, cells expressing the umami receptor and Gα15 are compared with cells expressing Gα15 only; the difference between these signals is defined as umami receptor-specific signal; −: it was not possible to achieve umami receptor-specific signals using representative extracts and other complex mixtures using the calcium-based receptor assay
# Conditions: for release of intracellular calcium, T1R1/T1R3 umami receptor, average / release of intracellular calcium, T1R1/T1R3 umami receptor, meas. 1 / release of intracellular calcium, T1R1/T1R3 umami receptor, meas. 2: change in fluorescence (ΔF)
# Experimental: FIG. 1 Activation of the T1R1/T1R3 umami receptor expressed in HEK293-Gα15 cells as measured by monitoring the release of intracellular calcium using the calcium fluorescent marker Fluo-4-AM as described in Example 2. Activity of the umami receptor was measured as the change in fluorescence which was calculated by subtracting the […]. Test solutions comprise extracts as indicated and prepared as described in Example 2. […]
# We developed a unique functional umami receptor assay to evaluate and quantify umami in tomato and other crude plant or food extracts using the BRET technique: to test the principle we used the donor and acceptor proteins relating to BRET-2. In short, the human T1R1 and T1R3 taste receptors were cloned and fused with Renilla luciferase (Rluc) as donor protein; green fluorescent protein-2 (GFP2) served as acceptor protein and was fused to β-arrestin-2. Both constructs were transfected into a HEK293 cell line cells) for heterologous expression of the proteins. Various mammalian cell lines have been reported to be highly suitable for expression of receptors or other proteins, with HEK293 (human embryonic kidney) cells and CHO (Chinese hamster ovary) cells being some of the most versatile and suitable ones^12. Similarly, GPCRs can be expressed in various ways as described in multiple publications, such as transient^6, 8, 13-15 or stable (constitutive or inducible)^6, 9, 16, 17 expression, depending on the nature of the experiment, the respective receptor or the available time. Upon receptor stimulation with an agonist or crude extracts, the β-arrestin-2/GFP-2 protein interacts with the activated receptor thus bringing GFP-2 in close proximity with luciferase, making energy transfer between these two proteins possible and generating a BRET signal. In the presence of oxygen the luciferase catalyses the transformation of the substrate DeepBlueC into coelenteramide, which can be measured at 395-410 nm. If GFP-2 is in close proximity to the luciferase and energy transfer takes place, the emission will shift to 510 nm; this is referred to as the BRET signal and is expressed as ratio between the acceptor (GFP-2) and the donor (Renilla luciferase). The following experiments are designed to illustrate that conventional calcium-based functional receptor assays are not suitable for measuring the effects of crude extracts; in contrast, the BRET assay (as indicated here with umami) can clearly measure specific receptor responses using crude natural extracts. Moreover, the assay is also sensitive enough for detecting differences of receptor activation between the different tomato samples. Materials & Methods: Chemicals and Media: Fluo-4 AM was from Molecular Probes (# F-14202, prepared as 5 mM stock in DMSO), DMEM (with 4.5 g/l glucose and ultraglutamine, # BE12-604F) was from Lonza, trypsin-EDTA, Lipofectamine 2000, OptiMem and FCS were obtained from Life Technologies Invitrogen. Monosodium glutamate (MSG), Inosine 5′-monophosphate as well as all other chemicals were from Sigma-Aldrich. The plasmid encoding GFP2-β-arrestin-2 was purchased from BioSignal Packard (#6310176). Coelenterazine 400A (a DeepBlueC derivative) and Coelenterazine-H were from VWR International (# BTIU10125-1 and 233903-50, respectively). All other cell culture supplies were from Greiner BioOne. Receptor Fusion Constructs, Cell Lines, and Media: The human T1R1 and human T1R3 umami receptors were fused at their C-terminal in frame to Renilla Luciferase (Rluc) using standard molecular cloning techniques and the codon-humanized pRluc-N3 vector from PerkinElmer (#6310220). For expression of the umami receptors and the construct encoding GFP-2/β-arrestin-2, HEK293 cells (human embryonic kidney cells, ATCC) were used using traditional transfection methods (see also below). HEK293 cells were maintained in DMEM and 10% FBS at 37° C./5% CO2. […]
compound,measurement,setting,value
"N[C@@H](CCC(=O)O)C(=O)[O-].[Na+] [MSG, Monosodium glutamate]","release of intracellular calcium, T1R1/T1R3 umami receptor, average",100 μM MSG,1170
same,"release of intracellular calcium, T1R1/T1R3 umami receptor, meas. 1",100 μM MSG,1146
same,"release of intracellular calcium, T1R1/T1R3 umami receptor, meas. 2",100 μM MSG,1193
same,"release of intracellular calcium, T1R1/T1R3 umami receptor, average",1 mM MSG,3269
same,"release of intracellular calcium, T1R1/T1R3 umami receptor, meas. 1",1 mM MSG,2548
same,"release of intracellular calcium, T1R1/T1R3 umami receptor, meas. 2",1 mM MSG,3990
same,"release of intracellular calcium, T1R1/T1R3 umami receptor, average",10 mM MSG,6749
same,"release of intracellular calcium, T1R1/T1R3 umami receptor, meas. 1",10 mM MSG,5766
same,"release of intracellular calcium, T1R1/T1R3 umami receptor, meas. 2",10 mM MSG,7732
same,"T1R1/T1R3 receptor-specific signal, Calcium assay",MSG 10 mM,+
same,umami receptor-specific response in the calcium-based receptor assay (in words),receptor-expressing versus control cells,umami receptor-specific responses
